Measured values taken from ChEMBL document CHEMBL1201861, “Genomics of Drug Sensitity in Cancer screening data, Wellcome Trust Sanger Institute”.

Legend:
Assay in all cases: cells
Format in all cases: functional, cell-based, Homo sapiens
QIMR-WIL = settings: Homo sapiens, QIMR-WIL;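 further: growth inhibition of QIMR-WIL cells, read out with a cell viability assay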
Description: SANGER: Inhibition of human QIMR-WIL cell growth in a cell viability assay.

KNS-81-FD = settings: Homo sapiens, KNS-81-FD;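 further: growth inhibition of KNS-81-FD cells, read out with a cell viability assay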
Description: SANGER: Inhibition of human KNS-81-FD cell growth in a cell viability assay.

HCE-4 = settings: Homo sapiens, HCE-4;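 further: cell viability assay measuring inhibition of growth in the human HCE-4 cell line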
Description: SANGER: Inhibition of human HCE-4 cell growth in a cell viability assay.

CAS-1 = settings: Homo sapiens, CAS-1;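 further: growth inhibition of CAS-1 cells, measured with a cell viability assay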
Description: SANGER: Inhibition of human CAS-1 cell growth in a cell viability assay.

SF-539 = settings: Homo sapiens, SF-539;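 further: Read-out is a cell viability assay, with IC50 reflecting inhibition of cell growth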
Description: SANGER: Inhibition of human SF539 cell growth in a cell viability assay.

TGBC1TKB = settings: Homo sapiens, TGBC1TKB;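 further: growth inhibition of TGBC1TKB cells, read out by a cell viability assay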
Description: SANGER: Inhibition of human TGBC1TKB cell growth in a cell viability assay.

RPMI-8866 = settings: Homo sapiens, RPMI-8866
Description: SANGER: Inhibition of human RPMI-8866 cell growth in a cell viability assay.

NOS-1 = settings: Homo sapiens, NOS-1;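 further: growth inhibition of the human NOS-1 cell line, read out with a cell viability assay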
Description: SANGER: Inhibition of human NOS-1 cell growth in a cell viability assay.

COLO-668 = settings: Homo sapiens, COLO-668
Description: SANGER: Inhibition of human COLO-668 cell growth in a cell viability assay.

EW-24 = settings: Homo sapiens, EW-24;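 further: human EW-24 cancer cell line, growth inhibition read out via a cell viability assay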
Description: SANGER: Inhibition of human EW-24 cell growth in a cell viability assay.

KARPAS-45 = settings: Homo sapiens, KARPAS-45;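 further: inhibition of cell line growth, read out through a viability assay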
Description: SANGER: Inhibition of human KARPAS-45 cell growth in a cell viability assay.

LB771-HNC = settings: Homo sapiens, LB771-HNC;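 further: growth inhibition of LB771-HNC human cells, read out with a cell viability assay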
Description: SANGER: Inhibition of human LB771-HNC cell growth in a cell viability assay.

KURAMOCHI = settings: Homo sapiens, KURAMOCHI;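 further: growth inhibition of KURAMOCHI cells, read out with a cell viability assay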
Description: SANGER: Inhibition of human KURAMOCHI cell growth in a cell viability assay.

KM-H2 = settings: Homo sapiens, KM-H2;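 further: growth inhibition of KM-H2 cells, read out by a cell viability assay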
Description: SANGER: Inhibition of human KM-H2 cell growth in a cell viability assay.

DSH1 = settings: Homo sapiens, DSH1;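 further: growth inhibition of human DSH1 cells, measured with a cell viability readout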
Description: SANGER: Inhibition of human DSH1 cell growth in a cell viability assay.

HCE-T = settings: Homo sapiens, HCE-T;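 further: cell viability assay read-out, reporting inhibition of HCE-T cell growth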
Description: SANGER: Inhibition of human HCE-T cell growth in a cell viability assay.

ES6 = settings: Homo sapiens, ES6;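 further: growth inhibition of human ES6 cells, read out with a cell viability assay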
Description: SANGER: Inhibition of human ES6 cell growth in a cell viability assay.

SCH = settings: Homo sapiens, SCH;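 further: growth inhibition of human SCH cells, read out in a cell viability assay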
Description: SANGER: Inhibition of human SCH cell growth in a cell viability assay.

TE-6 = settings: Homo sapiens, TE-6;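 further: growth inhibition of TE-6 cells, read out with a cell viability assay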
Description: SANGER: Inhibition of human TE-6 cell growth in a cell viability assay.

NCI-H1395 = settings: Homo sapiens, NCI-H1395;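 further: cell viability assay read-out quantifying reduced proliferation of human NCI-H1395 cells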
Description: SANGER: Inhibition of human NCI-H1395 cell growth in a cell viability assay.

NCI-H82 = settings: Homo sapiens, NCI-H82;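 further: growth inhibition of NCI-H82 cells, measured with a cell viability readout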
Description: SANGER: Inhibition of human NCI-H82 cell growth in a cell viability assay.

SK-MEL-1 = settings: Homo sapiens, SK-MEL-1;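 further: growth inhibition of human SK-MEL-1 cells, read out by a cell viability assay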
Description: SANGER: Inhibition of human SK-MEL-1 cell growth in a cell viability assay.

MS-1 = settings: Homo sapiens, MS-1;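 further: growth inhibition of MS-1 cells, read out by cell viability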
Description: SANGER: Inhibition of human MS-1 cell growth in a cell viability assay.

LU-134-A = settings: Homo sapiens, LU-134-A
Description: SANGER: Inhibition of human LU-134-A cell growth in a cell viability assay.

NCI-H1770 = settings: Homo sapiens, NCI-H1770;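 further: growth inhibition of NCI-H1770 cells determined with a viability readout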
Description: SANGER: Inhibition of human NCI-H1770 cell growth in a cell viability assay.

NB10 = settings: Homo sapiens, NB10;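 further: growth inhibition of NB10 cells, read out by a cell viability assay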
Description: SANGER: Inhibition of human NB10 cell growth in a cell viability assay.

LS-513 = settings: Homo sapiens, LS-513
Description: SANGER: Inhibition of human LS-513 cell growth in a cell viability assay.

A4-Fuk = settings: Homo sapiens, A4-Fuk;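 further: growth inhibition of A4-Fuk cells, read out by a cell viability assay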
Description: SANGER: Inhibition of human A4-Fuk cell growth in a cell viability assay.

8-MG-BA = settings: Homo sapiens, 8-MG-BA;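 further: growth inhibition of 8-MG-BA cells, read out with a cell viability assay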
Description: SANGER: Inhibition of human 8-MG-BA cell growth in a cell viability assay.

HCC2157 = settings: Homo sapiens, HCC2157;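 further: growth inhibition of the cancer cell line, read out as cell viability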
Description: SANGER: Inhibition of human HCC2157 cell growth in a cell viability assay.

NOMO-1 = settings: Homo sapiens, NOMO-1;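 further: growth inhibition of human NOMO-1 cells measured by a cell viability assay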
Description: SANGER: Inhibition of human NOMO-1 cell growth in a cell viability assay.

KE-37 = settings: Homo sapiens, KE-37;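 further: growth inhibition of KE-37 cells, read out with a cell viability assay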
Description: SANGER: Inhibition of human KE-37 cell growth in a cell viability assay.

BB49-HNC = settings: Homo sapiens, BB49-HNC;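 further: cell viability assay read-out, reported as inhibition of BB49-HNC cell growth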
Description: SANGER: Inhibition of human BB49-HNC cell growth in a cell viability assay.

KG-1 = settings: Homo sapiens, KG-1;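 further: growth inhibition of KG-1 cells, read out by a cell viability assay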
Description: SANGER: Inhibition of human KG-1 cell growth in a cell viability assay.

Mo = settings: Homo sapiens, Mo
Description: SANGER: Inhibition of human Mo-T cell growth in a cell viability assay.

SF-268 = settings: Homo sapiens, SF-268;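 further: growth inhibition of SF-268 cells determined with a cell viability assay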
Description: SANGER: Inhibition of human SF268 cell growth in a cell viability assay.

JVM-2 = settings: Homo sapiens, JVM-2;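 further: growth inhibition of JVM-2 cells determined by a cell viability assay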
Description: SANGER: Inhibition of human JVM-2 cell growth in a cell viability assay.

MOLT-4 = settings: Homo sapiens, MOLT-4;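 further: growth inhibition of MOLT-4 cells, determined with a cell viability readout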
Description: SANGER: Inhibition of human MOLT-4 cell growth in a cell viability assay.

LS-1034 = settings: Homo sapiens, LS-1034
Description: SANGER: Inhibition of human LS-1034 cell growth in a cell viability assay.

ETK-1 = settings: Homo sapiens, ETK-1;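 further: growth inhibition of human ETK-1 cells, read out with a cell viability assay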
Description: SANGER: Inhibition of human ETK-1 cell growth in a cell viability assay.

COLO-829 = settings: Homo sapiens, COLO-829
Description: SANGER: Inhibition of human COLO-829 cell growth in a cell viability assay.

EW-13 = settings: Homo sapiens, EW-13;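 further: growth inhibition of EW-13 cells, read out with a cell viability assay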
Description: SANGER: Inhibition of human EW-13 cell growth in a cell viability assay.

OCUB-M = settings: Homo sapiens, OCUB-M;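 further: growth inhibition of the cancer cell line, read out through a cell viability assay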
Description: SANGER: Inhibition of human OCUB-M cell growth in a cell viability assay.

NCI-H1650 = settings: Homo sapiens, NCI-H1650;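 further: growth inhibition of human NCI-H1650 cells measured by a cell viability assay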
Description: SANGER: Inhibition of human NCI-H1650 cell growth in a cell viability assay.

U-266 = settings: Homo sapiens, U-266
Description: SANGER: Inhibition of human U-266 cell growth in a cell viability assay.

RXF 393 = settings: Homo sapiens, RXF 393;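 further: growth inhibition of human RXF 393 cells, read out with a cell viability assay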
Description: SANGER: Inhibition of human RXF393 cell growth in a cell viability assay.

IST-MEL1 = settings: Homo sapiens, IST-MEL1;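 further: growth inhibition of the cell line, read out with a cell viability assay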
Description: SANGER: Inhibition of human IST-MEL1 cell growth in a cell viability assay.

BB30-HNC = settings: Homo sapiens, BB30-HNC;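 further: growth inhibition of the cultured cell line, read out by a cell viability assay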
Description: SANGER: Inhibition of human BB30-HNC cell growth in a cell viability assay.

RS4-11 = settings: Homo sapiens, RS4-11;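 further: growth inhibition of RS4-11 cells, read out by a cell viability assay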
Description: SANGER: Inhibition of human RS4-11 cell growth in a cell viability assay.

`CCN(CC)CCNC(=O)c1c(C)[nH]c(/C=C2\C(=O)Nc3ccc(F)cc32)c1C` [SUNITINIB] was tested, and the IC50 (QIMR-WIL) was 3.63 µM, the IC50 (KNS-81-FD) was over 8 µM and the IC50 (HCE-4) was 3.79 µM. It also gave an IC50 (CAS-1) of over 8 µM, an IC50 (SF-539) of over 8 µM and an IC50 (TGBC1TKB) of over 8 µM. The IC50 (RPMI-8866) was over 8 µM, the IC50 (NOS-1) was 0.0153 µM and the IC50 (COLO-668) was over 8 µM. It also gave an IC50 (EW-24) of over 8 µM, an IC50 (KARPAS-45) of 2.49 µM and an IC50 (LB771-HNC) of over 8 µM. For the same compound, the IC50 (KURAMOCHI) was over 8 µM, the IC50 (KM-H2) was over 8 µM and the IC50 (DSH1) was over 8 µM. For the same compound, the IC50 (HCE-T) was over 8 µM, the IC50 (ES6) was 0.981 µM and the IC50 (SCH) was over 8 µM. It also gave an IC50 (TE-6) of over 8 µM, an IC50 (NCI-H1395) of over 8 µM and an IC50 (NCI-H82) of 7.38 µM. For the same compound, the IC50 (SK-MEL-1) was over 8 µM, the IC50 (MS-1) was 3.84 µM and the IC50 (LU-134-A) was over 8 µM. It also gave an IC50 (NCI-H1770) of over 8 µM, an IC50 (NB10) of over 8 µM and an IC50 (LS-513) of over 8 µM. For the same compound, the IC50 (A4-Fuk) was 1.34 µM, the IC50 (8-MG-BA) was 6.52 µM and the IC50 (HCC2157) was over 8 µM. The IC50 (NOMO-1) was 4.34 µM, the IC50 (KE-37) was 4.06 µM and the IC50 (BB49-HNC) was 3.71 µM. It also gave an IC50 (KG-1) of 6.03 µM, an IC50 (Mo) of over 8 µM and an IC50 (SF-268) of 3.33 µM. For the same compound, the IC50 (JVM-2) was over 8 µM, the IC50 (MOLT-4) was 3.4 µM and the IC50 (LS-1034) was over 8 µM. It also gave an IC50 (ETK-1) of 1.29 µM, an IC50 (COLO-829) of over 8 µM and an IC50 (EW-13) of over 8 µM. For the same compound, the IC50 (OCUB-M) was over 8 µM, the IC50 (NCI-H1650) was over 8 µM and the IC50 (U-266) was over 8 µM. The IC50 (RXF 393) was over 8 µM and the IC50 (IST-MEL1) was over 8 µM.

`COc1cc2ncn(-c3cc(OCc4ccccc4S(C)(=O)=O)c(C#N)s3)c2cc1OC` [GSK-319347A] showed an IC50 (QIMR-WIL) of over 5 µM, an IC50 (KNS-81-FD) of over 5 µM and an IC50 (CAS-1) of over 5 µM. It also gave an IC50 (SF-539) of over 5 µM, an IC50 (TGBC1TKB) of over 5 µM and an IC50 (RPMI-8866) of over 5 µM. For the same compound, the IC50 (NOS-1) was over 5 µM, the IC50 (COLO-668) was over 5 µM and the IC50 (EW-24) was over 5 µM. It also gave an IC50 (KARPAS-45) of over 5 µM, an IC50 (BB30-HNC) of over 5 µM and an IC50 (LB771-HNC) of over 5 µM. It also gave an IC50 (KURAMOCHI) of over 5 µM, an IC50 (KM-H2) of over 5 µM and an IC50 (DSH1) of over 5 µM. It also gave an IC50 (HCE-T) of over 5 µM, an IC50 (ES6) of over 5 µM and an IC50 (SCH) of over 5 µM. The IC50 (TE-6) was over 5 µM, the IC50 (NCI-H1395) was over 5 µM and the IC50 (NCI-H82) was over 5 µM. It also gave an IC50 (RS4-11) of over 5 µM, an IC50 (SK-MEL-1) of over 5 µM and an IC50 (MS-1) of over 5 µM. The IC50 (LU-134-A) was over 5 µM, the IC50 (NCI-H1770) was over 5 µM and the IC50 (NB10) was over 5 µM. The IC50 (LS-513) was over 5 µM, the IC50 (A4-Fuk) was over 5 µM and the IC50 (8-MG-BA) was over 5 µM. For the same compound, the IC50 (HCC2157) was over 5 µM, the IC50 (NOMO-1) was over 5 µM and the IC50 (KE-37) was over 5 µM. The IC50 (BB49-HNC) was over 5 µM, the IC50 (KG-1) was over 5 µM and the IC50 (Mo) was over 5 µM. The IC50 (SF-268) was over 5 µM, the IC50 (JVM-2) was over 5 µM and the IC50 (MOLT-4) was over 5 µM. It also gave an IC50 (LS-1034) of over 5 µM, an IC50 (ETK-1) of over 5 µM and an IC50 (COLO-829) of over 5 µM. It also gave an IC50 (EW-13) of over 5 µM, an IC50 (OCUB-M) of over 5 µM and an IC50 (NCI-H1650) of over 5 µM. The IC50 (U-266) was over 5 µM, the IC50 (RXF 393) was over 5 µM and the IC50 (IST-MEL1) was over 5 µM.

`C=C(c1ccc(C(=O)O)cc1)c1cc2c(cc1C)C(C)(C)CCC2(C)C` [BEXAROTENE] gave an IC50 (QIMR-WIL) of over 8 µM, an IC50 (KNS-81-FD) of over 8 µM and an IC50 (HCE-4) of over 8 µM. The IC50 (CAS-1) was over 8 µM, the IC50 (SF-539) was over 8 µM and the IC50 (TGBC1TKB) was over 8 µM. For the same compound, the IC50 (RPMI-8866) was over 8 µM, the IC50 (NOS-1) was 6.92 µM and the IC50 (COLO-668) was over 8 µM. It also gave an IC50 (EW-24) of over 8 µM, an IC50 (BB30-HNC) of over 8 µM and an IC50 (LB771-HNC) of 2.5 µM. For the same compound, the IC50 (KURAMOCHI) was over 8 µM, the IC50 (KM-H2) was over 8 µM and the IC50 (DSH1) was over 8 µM. For the same compound, the IC50 (HCE-T) was over 8 µM, the IC50 (ES6) was over 8 µM and the IC50 (SCH) was over 8 µM. It also gave an IC50 (TE-6) of over 8 µM, an IC50 (NCI-H1395) of over 8 µM and an IC50 (NCI-H82) of over 8 µM. For the same compound, the IC50 (RS4-11) was over 8 µM, the IC50 (SK-MEL-1) was over 8 µM and the IC50 (MS-1) was over 8 µM. The IC50 (LU-134-A) was over 8 µM, the IC50 (NCI-H1770) was over 8 µM and the IC50 (NB10) was over 8 µM. The IC50 (LS-513) was over 8 µM, the IC50 (A4-Fuk) was over 8 µM and the IC50 (8-MG-BA) was over 8 µM. For the same compound, the IC50 (HCC2157) was over 8 µM, the IC50 (NOMO-1) was over 8 µM and the IC50 (KE-37) was over 8 µM. For the same compound, the IC50 (BB49-HNC) was over 8 µM, the IC50 (KG-1) was over 8 µM and the IC50 (Mo) was over 8 µM. It also gave an IC50 (SF-268) of over 8 µM, an IC50 (JVM-2) of over 8 µM and an IC50 (MOLT-4) of over 8 µM. The IC50 (LS-1034) was over 8 µM, the IC50 (ETK-1) was over 8 µM and the IC50 (COLO-829) was over 8 µM. The IC50 (EW-13) was 0.485 µM, the IC50 (OCUB-M) was 1.02 µM and the IC50 (NCI-H1650) was over 8 µM. The IC50 (U-266) was over 8 µM, the IC50 (RXF 393) was over 8 µM and the IC50 (IST-MEL1) was over 8 µM.
